According to US4026857A, “Epoxy emulsion water-based coating” (priority 1975, dated 1977):

Legend:
[1] = Emulsion formation with different organic solvents; assay type: physicochemical; conditions: 50 parts solvent, 100 parts epoxy resin, 14 parts surfactant, 150 parts deionized water
Description: A series of emulsions were prepared using 100 parts of an epoxy resin (diglycidylether of bisphenol A) having an epoxy equivalent weight of 2,000-2,500, 50 parts of a solvent, 14 parts of surfactant having the formula [drawing 1] wherein a+ c is about 190-200, b is about 60-70, and average molecular weight is about 12,500, and 150 parts of deionized water. In each emulsion a different solvent was used. Each emulsion, as well as other emulsions whose formulations are described in this specification, was prepared using the following general procedure:
The epoxy resin was dissolved in the solvent by heating at 130° C. with agitation. The resin solution was then cooled to about 65° C. and placed in high speed dispersing equipment. The surfactant was added. (In formulations wherein the emulsion coating was to be baked, cross-linking catalyst and curing agent, as defined hereinafter, were also added at this point.) Part of the water (about 100 parts) was then slowly added under high speed agitation (approximately 2,000 ft./min. peripheral speed) to pass the inversion point. Thereupon the agitation speed was slowed down to about 1,000 ft./min. and the balance of the water was added.
In each emulsion, a different organic solvent was used. […] Each emulsion formed was applied, by wire wound bar application, to a test panel of lubricated electrolytic tinplated steel. […]

[2] = Solubility of solvents in water and of water in solvents; assay type: physicochemical; conditions: for Solubility, Solvent in H2 O: solvent in water; for Solubility, H2 O in Solvent: water in solvent

| Structure (SMILES) | emulsion formation [1] | Solubility, Solvent in H2 O [2] | Solubility, H2 O in Solvent [2] |
| --- | --- | --- | --- |
| CCCCCCOCCO [Hexyl Cellosolve, 2-Hexoxyethanol] |  | 0.99 wt. % | 18.8 wt. % |
| CCOCCO [Ethyl Cellosolve] |  | .infin. | .infin. |
| COCCO [Methyl Cellosolve] |  | .infin. | .infin. |

More lines, now with the values ahead:

| emulsion formation [1] | Solubility, Solvent in H2 O [2] | Solubility, H2 O in Solvent [2] | Structure (SMILES) |
| --- | --- | --- | --- |
| an emulsion could not be formed |  |  | CC(C)CC(=O)CC(C)C [diisobutyl ketone] |
| an emulsion could not be formed |  |  | OCCOCCOc1ccccc1 [diethylene glycol monophenyl ether] |
